{"source": "patent US20160250253A1", "about": "“STRONTIUM-CONTAINING COMPLEXES FOR TREATING GASTROESOPHAGEAL REFLUX AND BARRETT'S ESOPHAGUS” (priority 2013, published 2016)", "key": {"[1]": {"test_system": "pain of sore throat", "experiment": "Sore throat pain after gargling", "type": "in vivo", "conditions": "within several minutes after gargling, clinical observations", "from_the_text": "Since acidic material from the stomach is what causes the burning pain and inflammation in GER, it is hypothesized that strontium would be effective in treating GER."}, "[2]": {"conditions": "oral, 680 mg of elemental strontium per day; cited from earlier work"}, "[3]": {"test_system": "histamine-induced itching", "conditions": "topical; cited from earlier work"}, "[4]": {"test_system": "Type C nociceptors", "experiment": "Substance P release by Type C nociceptors, unpublished animal studies", "type": "in vivo", "from_the_text": "As mentioned above, acid from the stomach activates many pathways that trigger pain and inflammation such as the release of substance P, neurokinin A, and CGRP. […] While the precise molecular mechanism by which strontium inhibits substance P release is unknown, it is believed that the release of substance P, neurokinin A and CGRP occur together and by the same or similar trigger mechanism."}, "[5]": {"test_system": "burning pain due to 1% lactic acid", "experiment": "Burning pain from 1% lactic acid instilled on the conjunctiva of the eye", "type": "in vivo", "conditions": "1% lactic acid on the conjunctiva, pilot studies in humans"}, "[6]": {"test_system": "synaptotagmin-1", "conditions": "strontium substitutes for calcium; cited from earlier work"}, "[7]": {"test_system": "CICR pathway", "conditions": "cited from earlier work"}, "[8]": {"test_system": "TCN activation by highly acidic chemical peels", "conditions": "topically applied, 70% glycolic acid, pH 0.6 on the skin, previous studies; cited from earlier work"}, "[9]": {"test_system": "TCN activation by highly acidic chemical peels", "experiment": "Burning pain from 70% glycolic acid, pH 0.6, applied to the skin", "type": "in vivo, human", "conditions": "strontium mixed with 70% glycolic acid", "experimental": "Nociceptors also have a CaSR that inhibits nociceptor activation when the extracellular concentration of calcium is raised above normal, or if a similar concentration of strontium is administered. […] When strontium is mixed with the acid, burning pain and stinging is suppressed by 80% or more so that any remaining sensory irritation is not bothersome."}, "[10]": {"test_system": "acid-induced pain", "experiment": "Double blind study of glycolic acid induced pain on the forearm", "type": "in vivo, human", "conditions": "25% glycolic acid with or without 250 millimolar gallic acid, topical on forearm, pain rated 0-4 every minute for 10 minutes", "experimental": "Briefly, in a double blind study, 25% glycolic acid solutions with or without 250 millimolar of gallic acid were applied to an 2×8 inch area of the forearm of the study participants. The pain level was assessed at time of application and every minute thereafter for 10 minutes. Study participants rated the pain levels on a 0-4 scale where 0 was no pain; 1 was slight pain; 2 was mild pain; 3 was moderate pain; and 4 was unbearable pain."}, "[11]": {"test_system": "ulcer", "conditions": "cited from earlier work"}, "[12]": {"target": "KCa 3.1 (Homo sapiens, UniProt O15554)", "conditions": "cited from earlier work"}, "[13]": {"test_system": "Helicobacter pylori", "conditions": "cited from earlier work"}, "[14]": {"test_system": "cancer cell lines", "conditions": "series of cancer cell lines; cited from earlier work"}, "[15]": {"test_system": "esophageal cancer cells (TE-2)", "conditions": "cited from earlier work"}}, "data": [{"smiles": "[Cl-].[Cl-].[Sr+2]", "note": "[strontium chloride solution, strontium chloride]", "values": [{"measurement": "pain of sore throat", "setting": "[1]", "result": "greatly relieved, if not eliminated"}]}, {"smiles": "N#Cc1c(N(CC(=O)[O-])CC(=O)[O-])sc(C(=O)[O-])c1CC(=O)[O-].[Sr+2].[Sr+2]", "note": "[strontium ranelate]", "values": [{"measurement": "fraction absorbed by the GI tract into the blood", "setting": "[2]", "result": "approximately 25%"}]}, {"smiles": "[Sr+2]", "note": "[strontium]", "values": [{"measurement": "fraction absorbed by the GI tract into the blood", "setting": "[2]", "result": "approximately 25%"}, {"measurement": "injected histamine-induced itching", "setting": "[3]", "result": "significantly inhibited"}, {"measurement": "substance P release", "setting": "[4]", "result": "inhibit substance P release"}, {"measurement": "burning pain", "setting": "[5]", "result": "inhibit burning pain"}, {"measurement": "reduction of amplitude of synchronous neurotransmitter release", "setting": "[6]", "result": "> 90", "unit": "%"}, {"measurement": "ability to induce CICR relative to calcium", "setting": "[7]", "result": "over a hundred-fold less active than calcium"}, {"measurement": "concentration in the ER relative to calcium", "setting": "[7]; greater than calcium", "result": "more than 150%"}, {"measurement": "intense burning pain", "setting": "[8]", "result": "virtually abolish"}, {"measurement": "suppression of burning pain and stinging", "setting": "[9]", "result": "≥ 80", "unit": "%"}]}, {"smiles": "O=C(O)c1cc(O)c(O)c(O)c1", "note": "[gallic acid, 3,4,5-trihydroxybenzoic acid]", "values": [{"measurement": "acid induced pain", "setting": "[10]", "result": "effective in reducing or preventing the acid induced pain"}, {"measurement": "ulcer-preventing properties", "setting": "[11]", "result": "ulcer-preventing properties"}, {"measurement": "block of KCa 3.1", "setting": "[12]", "result": "does not block"}, {"measurement": "H. pylori growth", "setting": "[13]", "result": "inhibition of H. pylori growth"}, {"measurement": "cell proliferation", "setting": "[14]", "result": "significant inhibition of cell proliferation"}, {"measurement": "apoptosis", "setting": "[15]", "result": "induced apoptosis"}]}, {"smiles": "O=C(O)C=Cc1ccccc1", "note": "[cinnamic acid]", "values": [{"measurement": "ulcer-preventing properties", "setting": "[11]", "result": "ulcer-preventing properties"}, {"measurement": "H. pylori growth", "setting": "[13]", "result": "inhibition of H. pylori growth"}]}]}
